From patent US5416111A, “Cyano-containing n-phenyl-amino-terminated non-peptidyl α-succinamidoacyl aminodiols as anti-hypertensive agents” (G.D. Searle & Co., priority 1993, dated 1995) come the findings set out here.

The target of one experiment is T1, human renin (Homo sapiens, UniProt P00797).
T1 construct: purchased National Institute for Biological Standards, London
T1 sequence (P00797 67-406): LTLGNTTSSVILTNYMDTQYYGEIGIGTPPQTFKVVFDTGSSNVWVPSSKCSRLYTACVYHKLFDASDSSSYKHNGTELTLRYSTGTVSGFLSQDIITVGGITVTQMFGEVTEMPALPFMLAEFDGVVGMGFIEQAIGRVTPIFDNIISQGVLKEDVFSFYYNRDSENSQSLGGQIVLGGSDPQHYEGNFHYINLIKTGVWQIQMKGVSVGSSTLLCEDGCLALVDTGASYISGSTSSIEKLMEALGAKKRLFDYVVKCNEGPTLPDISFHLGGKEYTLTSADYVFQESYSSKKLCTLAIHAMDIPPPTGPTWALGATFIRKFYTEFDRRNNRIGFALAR
The experiment is described as follows: human renin inhibition assay in vitro (angiotensin I produced, radioimmunoassay). The class given is biochemical. The conditions noted are these: human plasma, pH 7.4, two hours at 37° C. How it is done: (§1) Compounds of Formula I were evaluated as inhibitors of human renin in an in vitro assay, as follows: This human renin inhibition test has been previously described in detail [Papaioannou, et al., Clinical and Experimental Hypertension, A7(9), 1243-1257 (1985)]. Human renin was obtained from the National Institute for Biological Standards, London. In a total volume of 0.25 mL 100 mM Tris-acetate buffer at pH 7.4, 25×10-6 Goldblatt units of renin, 0.05 mL of plasma from human volunteers taking oral contraceptives, 6.0 mM sodium EDTA, 2.4 mM phenylmethyl sulfonyl fluoride, 1.5 mM 8-hydroxyquinoline, 0.4 mg/mL BSA, and 0.024 mg/mL neomycin sulfate were incubated for two hours at 37° C. in the presence or absence of renin inhibitors. The produced angiotensin I was determined by radioimmunoassay (New England Nuclear kit). Compounds to be assayed were solubilized in either ethyl alcohol or DMSO and diluted with 100 mM Tris-acetate buffer at pH 7.4 to the appropriate concentration. The final concentration of organic solvent in the reaction mixture was less than 1%. Control incubations at 37° C. were used to correct for effects of organic solvent on renin activity.

The next experiment has as its system hog renin. The experiment is described as follows: hog renin inhibition assay in vitro (angiotensin I produced, radioimmunoassay). Format: biochemical. The conditions noted are these: 20 micromolar synthetic tetradecapeptide substrate, pH 7.4, one hour at 37° C. How it is done:
as §1
The hog renin inhibition assay was performed in a manner similar to the human renin assay, with the following modifications. […] The amount of angiotensin I produced was determined as for the human renin inhibition assay.

In general, IC50 refers to the midpoint of a concentration-inhibition curve. Low readings indicate inhibition by little substance, high ones a need for much substance.

For `CC(C)C[C@H](NC(=O)C(CC(=O)N1CCOCC1)Cc1cccc2ccccc12)C(=O)N[C@@H](CC1CCCCC1)[C@@H](O)CO` (stereo partly drawn) [Example 9, 3-(N-morpholinocarbonyl)-2-(R,S)-(1-naphthylmethyl)-propionyl-L-leucinamide of (2S ,3R)-2-amino-1-cyclohexyl-3,4-dihydroxybutane], the results for the half-inhibitory concentration (IC50) against human renin and in the experiment on hog renin were 740 nM and 2800 nM, respectively.
